Peptide text beside a SMILES is read from it. * marks the point of attachment. Cbz = O=C(OCc1ccccc1)*; CH2F = FC*
Assays:
Format in all cases: cell-based
HeLa cells [1] = assay: MTS cell viability assay, HeLa cells; conditions: HeLa cells, co-treatment with MCB-613, 24 hours
HeLa cells [2] = assay: Cytoplasmic vacuolization of cancer cells; conditions: HeLa cells, co-treatment with MCB-613, 24 hours
SRC-2 = target: T1, SRC-2 (Homo sapiens, UniProt Q15596); assay: Gal4 luciferase reporter assay (pBIND-SRC-2 + pG5-LUC) in HeLa cells; conditions: for intrinsic transcriptional activity of SRC-2: 24 hours, additional paraptosis agents
T1 construct: expressed in transfected cells; host or cells: HeLa
T1 sequence (Q15596 whole entry, the tested form may be a part): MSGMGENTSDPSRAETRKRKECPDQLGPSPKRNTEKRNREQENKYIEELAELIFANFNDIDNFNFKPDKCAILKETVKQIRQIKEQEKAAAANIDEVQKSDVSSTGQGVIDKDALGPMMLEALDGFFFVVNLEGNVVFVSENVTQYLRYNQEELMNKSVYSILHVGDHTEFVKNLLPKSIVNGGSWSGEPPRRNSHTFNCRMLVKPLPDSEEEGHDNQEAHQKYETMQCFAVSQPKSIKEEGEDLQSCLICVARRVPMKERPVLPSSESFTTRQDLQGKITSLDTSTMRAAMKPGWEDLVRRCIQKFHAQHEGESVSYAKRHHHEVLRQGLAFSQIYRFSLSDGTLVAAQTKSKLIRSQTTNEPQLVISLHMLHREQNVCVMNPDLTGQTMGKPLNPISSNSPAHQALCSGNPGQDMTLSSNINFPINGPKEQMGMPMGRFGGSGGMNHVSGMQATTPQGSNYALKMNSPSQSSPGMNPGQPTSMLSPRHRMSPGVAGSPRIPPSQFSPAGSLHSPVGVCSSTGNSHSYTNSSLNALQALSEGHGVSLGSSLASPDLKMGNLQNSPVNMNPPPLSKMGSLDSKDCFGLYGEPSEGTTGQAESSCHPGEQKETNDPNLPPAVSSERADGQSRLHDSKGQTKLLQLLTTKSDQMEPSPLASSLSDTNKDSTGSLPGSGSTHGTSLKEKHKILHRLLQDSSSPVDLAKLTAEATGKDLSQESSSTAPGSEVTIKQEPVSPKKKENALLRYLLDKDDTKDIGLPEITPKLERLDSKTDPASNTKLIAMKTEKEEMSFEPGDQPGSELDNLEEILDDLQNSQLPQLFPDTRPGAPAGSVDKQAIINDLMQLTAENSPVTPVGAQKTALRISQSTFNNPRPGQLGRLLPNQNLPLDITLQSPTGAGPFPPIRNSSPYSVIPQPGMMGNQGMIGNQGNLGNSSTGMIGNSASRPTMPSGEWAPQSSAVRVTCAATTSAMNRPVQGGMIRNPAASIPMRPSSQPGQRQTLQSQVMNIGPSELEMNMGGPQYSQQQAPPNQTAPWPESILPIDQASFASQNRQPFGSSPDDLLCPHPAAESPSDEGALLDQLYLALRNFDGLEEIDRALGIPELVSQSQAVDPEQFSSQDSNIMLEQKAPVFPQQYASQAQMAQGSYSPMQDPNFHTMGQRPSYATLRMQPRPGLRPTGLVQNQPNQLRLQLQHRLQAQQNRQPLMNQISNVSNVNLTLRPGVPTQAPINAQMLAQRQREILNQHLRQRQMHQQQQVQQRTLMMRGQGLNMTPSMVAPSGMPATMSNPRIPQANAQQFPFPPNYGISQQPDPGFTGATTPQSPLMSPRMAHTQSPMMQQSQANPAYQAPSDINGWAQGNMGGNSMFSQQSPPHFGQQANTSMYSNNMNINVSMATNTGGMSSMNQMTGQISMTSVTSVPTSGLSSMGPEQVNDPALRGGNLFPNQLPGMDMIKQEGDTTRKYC
Method: (§1) The constructs expressing the Gal4 responsive luciferase reporter (pG5-luc), Gal4 DBD fusion with SRC-1, […] (pBIND-SRC-1/-2/-3), MMP2 or MMP13 promoter driven luciferase reporter (MMP2-luc, MMP13-luc) were prepared. Twenty-four hours before transfection, HeLa cells were plated in 24-well dishes. The indicated expression plasmids were transfected into cells using Lipofectamine 2000 according to the manufacturer's instructions.
(§2) After various compound treatments, cells were lysed in luciferase lysis buffer and assayed for luciferase activity using the ONE-Glo luciferase assay system (Promega, Madison, Wis.). All luciferase activities were normalized to protein concentration determined by Bradford assay (Bio-Rad, Hercules, Calif.).

SRC-3 = target: T2, SRC-3 (Homo sapiens, UniProt Q9Y6Q9); assay: Gal4 luciferase reporter assay (pBIND-SRC-3 + pG5-LUC) in HeLa cells; conditions: for effect on activation of SRC-3 by MCB-613: co-treatment with MCB-613, 24 hours; for intrinsic transcriptional activity of SRC-3: 24 hours, additional paraptosis agents
T2 construct: expressed in transfected cells; host or cells: HeLa
T2 sequence (Q9Y6Q9 whole entry, the tested form may be a part): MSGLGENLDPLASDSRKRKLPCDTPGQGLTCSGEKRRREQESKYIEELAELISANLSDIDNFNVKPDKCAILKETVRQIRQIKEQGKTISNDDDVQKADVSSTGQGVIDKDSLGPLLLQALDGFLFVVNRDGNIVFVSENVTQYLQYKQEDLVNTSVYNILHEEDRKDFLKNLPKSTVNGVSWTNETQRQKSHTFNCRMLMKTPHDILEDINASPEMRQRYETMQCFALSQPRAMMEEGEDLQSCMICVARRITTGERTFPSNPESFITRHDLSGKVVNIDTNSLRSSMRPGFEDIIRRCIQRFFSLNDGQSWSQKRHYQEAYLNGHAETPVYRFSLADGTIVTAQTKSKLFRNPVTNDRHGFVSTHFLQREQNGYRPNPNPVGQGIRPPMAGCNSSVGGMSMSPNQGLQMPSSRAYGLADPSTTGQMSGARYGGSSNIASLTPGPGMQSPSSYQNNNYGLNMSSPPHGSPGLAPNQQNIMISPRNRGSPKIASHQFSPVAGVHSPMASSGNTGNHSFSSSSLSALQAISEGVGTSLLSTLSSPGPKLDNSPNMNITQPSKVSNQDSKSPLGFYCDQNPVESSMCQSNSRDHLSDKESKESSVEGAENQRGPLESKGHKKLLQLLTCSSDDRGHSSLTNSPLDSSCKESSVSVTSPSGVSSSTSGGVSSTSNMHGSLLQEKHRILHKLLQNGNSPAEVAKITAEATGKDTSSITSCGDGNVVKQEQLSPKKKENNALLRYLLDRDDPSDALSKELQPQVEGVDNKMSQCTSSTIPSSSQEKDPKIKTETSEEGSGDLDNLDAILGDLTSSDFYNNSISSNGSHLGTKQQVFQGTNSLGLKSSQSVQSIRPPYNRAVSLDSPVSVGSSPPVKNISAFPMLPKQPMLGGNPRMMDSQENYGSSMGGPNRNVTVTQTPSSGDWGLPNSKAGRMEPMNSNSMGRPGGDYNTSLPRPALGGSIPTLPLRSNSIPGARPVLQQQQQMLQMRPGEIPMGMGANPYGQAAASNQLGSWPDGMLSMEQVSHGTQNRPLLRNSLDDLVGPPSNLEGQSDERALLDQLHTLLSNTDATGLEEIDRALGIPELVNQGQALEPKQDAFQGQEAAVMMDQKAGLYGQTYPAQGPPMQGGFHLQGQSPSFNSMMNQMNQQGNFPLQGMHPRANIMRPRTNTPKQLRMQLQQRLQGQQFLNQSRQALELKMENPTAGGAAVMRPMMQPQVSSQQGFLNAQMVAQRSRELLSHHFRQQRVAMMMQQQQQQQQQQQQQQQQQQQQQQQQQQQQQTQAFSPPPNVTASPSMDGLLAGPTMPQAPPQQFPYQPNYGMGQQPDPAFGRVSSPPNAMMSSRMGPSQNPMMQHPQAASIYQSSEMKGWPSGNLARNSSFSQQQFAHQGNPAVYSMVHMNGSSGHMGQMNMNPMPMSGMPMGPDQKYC
Method: as §1, §2
HeLa cells were transfected with a Gal4 responsive luciferase reporter (pG5-luc) and a construct encoding SRC-1, SRC-2 or SRC-3 fused with the DNA binding domain of Gal4 (pBIND-SRC-1, pBIND-SRC-2 or pBIND-SRC-3) were treated with the indicated compounds.

SRC-1 = SRC-1 (Homo sapiens, UniProt Q15788); assay: Gal4 luciferase reporter assay (pBIND-SRC-1 + pG5-LUC) in HeLa cells; set-up: expressed in transfected cells; host or cells: HeLa; conditions: for intrinsic transcriptional activity of SRC-1: 24 hours, additional paraptosis agents
Chain of SRC-1 (Q15788 whole entry, the tested form may be a part): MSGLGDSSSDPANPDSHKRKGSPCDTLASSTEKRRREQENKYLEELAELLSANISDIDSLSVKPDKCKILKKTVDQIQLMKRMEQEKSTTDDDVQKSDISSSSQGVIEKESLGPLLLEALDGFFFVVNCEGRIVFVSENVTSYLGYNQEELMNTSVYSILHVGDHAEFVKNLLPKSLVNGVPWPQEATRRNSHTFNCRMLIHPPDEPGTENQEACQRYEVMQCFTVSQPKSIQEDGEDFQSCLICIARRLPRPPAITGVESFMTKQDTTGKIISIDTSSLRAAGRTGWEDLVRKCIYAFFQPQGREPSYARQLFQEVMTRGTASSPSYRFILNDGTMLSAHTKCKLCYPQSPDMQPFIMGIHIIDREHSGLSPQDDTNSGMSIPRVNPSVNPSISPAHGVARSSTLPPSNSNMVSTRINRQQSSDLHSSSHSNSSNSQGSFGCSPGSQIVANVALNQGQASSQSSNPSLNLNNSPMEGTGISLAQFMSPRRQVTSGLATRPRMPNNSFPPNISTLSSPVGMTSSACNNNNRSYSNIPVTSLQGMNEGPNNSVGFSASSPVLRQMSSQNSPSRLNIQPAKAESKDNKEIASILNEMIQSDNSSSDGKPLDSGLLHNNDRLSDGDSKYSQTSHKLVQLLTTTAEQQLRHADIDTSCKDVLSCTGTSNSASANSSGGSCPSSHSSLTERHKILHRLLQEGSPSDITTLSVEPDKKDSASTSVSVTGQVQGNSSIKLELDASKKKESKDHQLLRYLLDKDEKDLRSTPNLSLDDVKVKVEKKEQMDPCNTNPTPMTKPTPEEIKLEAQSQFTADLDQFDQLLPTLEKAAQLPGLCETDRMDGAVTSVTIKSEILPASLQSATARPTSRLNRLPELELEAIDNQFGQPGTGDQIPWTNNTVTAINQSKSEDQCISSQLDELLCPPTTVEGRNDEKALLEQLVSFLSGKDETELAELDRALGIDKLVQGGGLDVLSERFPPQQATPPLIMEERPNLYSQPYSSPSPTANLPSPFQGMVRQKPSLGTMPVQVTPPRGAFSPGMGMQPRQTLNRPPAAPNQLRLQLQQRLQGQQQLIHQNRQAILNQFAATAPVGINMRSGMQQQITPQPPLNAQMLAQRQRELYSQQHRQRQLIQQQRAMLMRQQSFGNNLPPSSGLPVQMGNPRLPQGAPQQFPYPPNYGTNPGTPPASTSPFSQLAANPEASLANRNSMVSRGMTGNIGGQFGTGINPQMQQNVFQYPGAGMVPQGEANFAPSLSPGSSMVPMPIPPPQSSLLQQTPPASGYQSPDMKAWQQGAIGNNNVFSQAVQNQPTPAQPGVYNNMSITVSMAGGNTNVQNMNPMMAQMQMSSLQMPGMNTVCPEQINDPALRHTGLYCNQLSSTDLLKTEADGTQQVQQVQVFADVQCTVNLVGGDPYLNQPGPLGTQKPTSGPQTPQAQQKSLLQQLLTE
Method: as §1, §2

[3] = test system: TM4 Sertoli cells and GBM cancer cells; assay: CellTiter-Glo viability, TM4 Sertoli cells versus GBM cell lines R0315 and 4687; conditions: 72 hours, GBM R0315 and 4687 vs TM4 Sertoli
Method: The effects of SYC-851 (Compound 4-8), SYC-852 (Compound 5-1), SYC-853 (Compound 5-4), and SYC-855 (Compound 7-8) on TM4 Sertoli cells and on GBM cancer cells were determined. Cells were plated as monolayer cultures and treated 24 hours later with the indicated concentration of compounds. After 72 hours, cells were harvested and assayed for viability using a CellTiter-Glo assay […]. The results for TM4 Setoli cells and for pediatric glioblastoma multiforme cell lines R0315 and 4687 and are shown in FIGS. 18A, 18B, and 18C, respectively.

HeLa cells [4] = assay: Western blot of stress, UPR, autophagy and apoptosis markers in HeLa cells; conditions: co-treatment with MCB-613, 24 hours
Method: For Western blotting, cells were harvested and lysed in lysis buffer (50 mM Tris, pH 8.0, 150 mM NaCl, 10% glycerol, 0.5% NP40, protease and phosphatase inhibitor) and then centrifuged for 15 min at 14000 rpm at 4° C. After total cellular protein concentration was determined by Bradford analysis (Bio-Rad, Hercules, Calif.), protein lysates were loaded onto and resolved by sodium dodecyl sulfate-polyacrylamide gel electrophoresis (SDS-PAGE) and transferred to PVDF membranes (BioRad) which were blocked and incubated with indicated antibodies. For immunoprecipitation, 10 μg of plasmid encoding FLAG-SRC-3 was transfected into HeLa cells with 90% confluence in one 10 cm plate with lipofectamine 2000 (Invitrogen). Twenty-four hours after transfection, the cells were treated with MCB-613 for one hour and lysed with lysis buffer (25 mM Tris-Cl pH7.5, 150 mM NaCl, 5% glycerol, 1 mM EDTA, 1% Triton X-100, protease and phosphatase inhibitor) at 4° C. After a 30-second sonication, the lysate was cleared by centrifugation at 14000 rpm at 4° C. for 15 minutes and was incubated with anti-Flag-M2 agarose affinity gel (Sigma) for four hours. The agarose gel was washed four times with washing buffer (25 mM Tris pH 8.0, 150 mM NaCl, 1 mM EDTA, 1% Triton X-100) and resuspended with SDS loading buffer for Western blotting.

[5] = co-treatment with MCB-613, 24 hours

CC(=O)N[C@@H](CS)C(=O)O [N-Acetyl cysteine]
effect on cell death caused by MCB-613 (HeLa cells [1]): protected cells from MCB-613 mediated cytotoxicity
effect on vacuolization induced by MCB-613 (HeLa cells [2]): blocked
effect on activation of SRC-2 by MCB-613 (SRC-2; [5]): abrogate
effect on activation of SRC-3 by MCB-613 (SRC-3): abrogate
effect on activation of SRC-1 by MCB-613 (SRC-1; [5]): abrogate

CCN(CC)CCCC(C)Nc1ccnc2cc(Cl)ccc12 (stereo not shown) [chloroquine]
effect on activation of SRC-3 by MCB-613 (SRC-3): did not inhibit

Cn1cnc(N)c2ncnc1-2 [Compound 3-MA, 3-methyladenine]
effect on activation of SRC-3 by MCB-613 (SRC-3): did not inhibit

CC(C)C[C@@H](C=O)NC(=O)[C@H](CC(C)C)NC(=O)[C@H](CC(C)C)NC(=O)OCc1ccccc1 [MG132] (Cbz-Leu-Leu-Leu-aldehyde)
intrinsic transcriptional activity of SRC-2 (SRC-2): robustly enhance
intrinsic transcriptional activity of SRC-3 (SRC-3): robustly enhance
intrinsic transcriptional activity of SRC-1 (SRC-1): robustly enhance

CO[C@@H](C(=O)N1Cc2n[nH]c(NC(=O)c3ccc(N4CCN(C)CC4)cc3)c2C1)c1ccccc1 [PHA 739358]
effect on activation of SRC-3 by MCB-613 (SRC-3): significantly inhibited

COc1cc(/C=C/C(=O)CC(=O)/C=C/c2ccc(O)c(OC)c2)ccc1O [curcumin]
intrinsic transcriptional activity of SRC-2 (SRC-2): robustly enhance
intrinsic transcriptional activity of SRC-3 (SRC-3): robustly enhance
intrinsic transcriptional activity of SRC-1 (SRC-1): robustly enhance

CC(C)N1CC(=Cc2cccnc2)C(=O)C(=Cc2cccnc2)C1 [SYC-855]
toxicity to cancer cells compared with non-cancer cells [3]: more toxicity to cancer cells than to non-cancer cells
SRC-3 intrinsic transcriptional activity (luciferase) (SRC-3; Example 6): high intrinsic transcriptional activity

CCCCC/C=C/C=C1/C(=O)C=C[C@@H]1C/C=C\CCCC(=O)O [Compound 15d-PGJ2, 15-deoxy-Δ^12,14-prostaglandin J2]
intrinsic transcriptional activity of SRC-2 (SRC-2): robustly enhance
intrinsic transcriptional activity of SRC-3 (SRC-3): robustly enhance
intrinsic transcriptional activity of SRC-1 (SRC-1): robustly enhance

COC(=O)C[C@H](NC(=O)[C@H](C)NC(=O)[C@@H](NC(=O)OCc1ccccc1)C(C)C)C(=O)CF [z-VAD-fmk] (Cbz-Val-Ala-Asp(OMe)-CH2F)
effect on activation of SRC-3 by MCB-613 (SRC-3): did not inhibit

O=C1C(=Cc2cccnc2)COCC1=Cc1cccnc1 [SYC-851]
toxicity to cancer cells compared with non-cancer cells [3]: more toxicity to cancer cells than to non-cancer cells

C[C@]12CC[C@H](O)C[C@H]1CC[C@@H]1[C@@H]2CC[C@]2(C)[C@@H](c3ccc(=O)oc3)CC[C@]12O [bufalin, reference compound]
effect on vacuolization induced by MCB-613 (HeLa cells [2]): effectively inhibited
effect on induction of ER stress (ATF4) by MCB-613 (HeLa cells [4]): completely reversed

C[C@@H]1C[C@@H]([C@H](O)CC2CC(=O)NC(=O)C2)C(=O)[C@@H](C)C1 [cycloheximide]
effect on cell death caused by MCB-613 (HeLa cells [1]): protected cells from MCB-613 mediated cytotoxicity
effect on vacuolization induced by MCB-613 (HeLa cells [2]): blocked
